Test results published in patent US9109001B2, “3′,5′-cyclic phosphoramidate prodrugs for HCV infection” (priority 2012, dated 2015).
Read-outs that look alike come from different tables or passages of the source.

Legend:
HCV genotype 1b replicon = experiment: HCV Replicon Assay; assay type: cell-based; settings: Zluc (Huh-7-derived) cells, HCV genotype 1b replicon, luciferase reporter, 72 hours, read-out: HCV Replicon EC50
Protocol: Huh-7-derived cell line (Zluc) that harbors an HCV genotype 1b replicon and a luciferase reporter gene was grown in Dulbecco's Modified Eagle Medium (DMEM) supplemented with 10% fetal bovine serum, 2 mM GlutaMAX, 1% MEM nonessential amino acids, 100 IU/mL penicillin, 100 μg/mL streptomycin, and 0.5 mg/mL Geneticin® (G418). For dose response testing the cells were seeded in 96-well plates at 7.5×10^3 cells per well in a volume of 50 μL, and incubated at 37° C./5% CO2. Drug solutions were made up freshly in Huh-7 media as 2× stocks. Ten additional 5-fold dilutions were prepared from these stocks in DMEM without G418. At least three hours after Zluc cells were seeded, drug treatment was initiated by adding 50 μL of drug dilutions to the plates in duplicate. Final concentrations of drug ranged from 100 μM to […]. Cells were then incubated at 37° C./5% CO2. Alternatively, compounds were tested at two concentrations (1 μM and 10 μM). […] For this, media was removed from the plates via gentle tapping. Fifty microliters of ONE-glo luciferase assay reagent was added to each well. The plates were shaken gently for 3 min at room temperature and luminescence was measured on a Victor^3 V 1420 multilabel counter (Perkin Elmer) with a 1 second read time using a 700 nm cut-off filter. The EC50 values were calculated from dose response curves from the resulting best-fit equations determined by Microsoft Excel and XLfit 4.1 software. When screening at two fixed concentrations, the results were expressed as % inhibition at 1 μM and 10 μM.

[1] = Stability in human intestinal S9 (HIS9); assay type: in vitro ADME; settings: 10 μM, 1.0 mg/mL protein, NADPH, 60 min; percent unchanged
Protocol: (§1) Stability in Liver and Intestinal Subcellular Fractions: Stability of test compounds were determined in subcellular fractions (microsomes and S9) of human liver and intestine in duplicate for each matrix. Pooled liver and intestinal microsomal, intestinal and liver S9 proteins (1.0 mg/mL), suspended in incubation buffer (100 mM potassium phosphate, pH 7.4, 5 mM MgCl2, and 0.1 mM EDTA), were preincubated for 5 min at 37° C. with 10 μM of a test compound from a 10 mM stock solution in DMSO (final DMSO concentration was 0.1%); the reaction was initiated by the addition of NADPH (3 mM final concentration). At specific times (0 and 60 min), 0.1 mL samples were taken and the reaction terminated by the addition of 4 volumes of stop solution (acetonitrile with 500 ng/mL carbutamide as an internal standard). The samples were vortexed for 30 sec and then centrifuged at 16,000 g for 10 min. 100 μL of supernatants were transferred to 96 deep-well plates preloaded with 100 μL distilled water and analyzed after mixing by LC-MS/MS. The MS peak area ratio of the test compound versus the internal standard was calculated and percent unchanged test compound over 60 minutes was calculated using this ratio.

mouse hepatocytes = experiment: Release of active metabolite in mouse hepatocytes; assay type: in vitro ADME; settings: 10 μM
Protocol: Assay for the Release of Active Metabolite in Primary Hepatocytes: Plates of fresh human and mouse hepatocytes were obtained on ice. The medium was removed and replaced with hepatocyte culture medium (William's E supplemented with penicillin-streptomycin, 1% L-glutamine, 1% insulin-transferrin-selenium and 0.1 μM Dexamethasone (Invitrogen) or with Invitro GRO HI medium complemented with Torpedo antibiotics (Celsis)). Cells were left overnight in an incubator at 37° C. to acclimatize to culture and the medium.
Hepatocyte incubations were conducted at a final volume of 0.5 mL hepatocyte culture medium/well (0.8 million cells/well for human and 0.5 million cells/well for mouse; 12 well plate no overlay, collagen coat). Culture medium from overnight incubation of cells was removed and replaced with fresh medium, pre-warmed to 37° C., containing 10 μM of test compound from a stock solution in DMSO (final DMSO concentration was 0.1%). At each specific time point, incubation medium was removed and cell monolayers were carefully washed two times with ice-cold PBS. Following the last wash, all PBS was carefully removed and 1.0 mL of extraction solution (ice-cold 70% methanol/30% water) added. Cells were scraped off and suspended in the extraction solution, transferred to 2 mL polypropylene microfuge tubes and intracellular contents extracted overnight at −20° C.
After the overnight treatment the cellular extracts were prepared by centrifugation at 16,000×g for 10 min to remove cellular debris. The remaining sample was then dried using a refrigerated centrivap concentrator. Dry extracts were reconstituted in 1000 μL of HPLC-grade water and centrifuged at 16,000×g for 10 min. Aliquots (100 μL each) of the supernatant were transferred into a 96 well plate and internal standard (4 ng/mL final concentration) was added as the internal standard (IS) for LC-MS/MS analysis.
The incubation time points were 6, 24 and 48 hours for human hepatocytes and 1, 4, 8, 12 and 24 hours for mouse hepatocytes.

Stability in mouse blood = assay type: in vitro ADME; settings: on ice, percent unchanged test compound
Protocol: Stability in Fresh Whole Blood: Stability of test compounds were determined in fresh human whole blood with K2EDTA as the anticoagulant (stored refrigerated at 2-8° C. and used within 7 days of receipt). The experiment was conducted with three replicates for each time point. Whole blood, pre-incubated at 37° C. for 10-15 minutes, was fortified with a solution of test compound for a final concentration of 0.5 μM and mixed for 30 sec. At intervals (0, 0.5, 1 and 2 hr), three 50-μL aliquots were combined with 200 μL (each) of an ice-cold solution of the internal standard (carbutamide 500 ng/mL in acetonitrile). The samples were vortexed for 30 sec and then centrifuged at 16,100 g for 5 min. The supernatant was analyzed by LC-MS/MS. The MS peak area ratio of the test compound versus the internal standard was calculated and percent unchanged test compound was calculated for each time point using this ratio.
The stability in mouse blood was determined on ice at 0, 0.5 and 1 hr as above.

[2] = Stability in human intestinal microsomes; assay type: in vitro ADME; settings: 10 μM, 1.0 mg/mL protein, NADPH, 60 min; percent unchanged
Protocol: as §1

[3] = Stability in simulated intestinal fluid; assay type: in vitro ADME; settings: 100 μM, 2 hours at 37° C.; percent of peak area at time zero
Protocol: (§2) Stability in Simulated Gastric and Intestinal Fluids: Simulated gastric and intestinal fluids containing pepsin and pancreatin respectively were prepared according to the U.S. Pharmacopoeia USP291 procedure (www.pharmacopeia.cn/v29240/usp29nf24s0_ris1s126.html). Test compound (final concentration 100 μM) was incubated in duplicate in the appropriate fluid for 2 hours at 37° C. The samples were quenched with 200 μl cold acetonitrile, vortexed for 30 seconds and then centrifuged at 16,100 g for 10 min. The supernatants were analyzed by HPLC on a C-18 column with UV detection at 252 nm. The time 0 samples were prepared by adding SGF or SIF fluid to the quenching solvent followed by the test compound. Stability of the compound was determined by peak area the test compound after incubation and calculated as percent of the peak area observed at time zero.

[4] = Stability in simulated gastric fluid; assay type: in vitro ADME; settings: 100 μM, 2 hours at 37° C.; percent of peak area at time zero
Protocol: as §2

SMILES | EC50 (HCV genotype 1b replicon; Hepatitis C virus, 72 h) | Stability HIS9 (1 hr) [1] | MsH AUC (pmol · hr/mill cells) (mouse hepatocytes) | MsH Cmax (pmol/mill cells) (mouse hepatocytes) | Stability WB_Mouse (ice; 1 hr) (Stability in mouse blood) | Stability HIM (1 hr) [2] | Stability SIF [3] | Stability SGF [4] | EC50 (HCV genotype 1b replicon)
CCOc1nc(N)nc2c1ncn2[C@@H]1O[C@@H]2COP(=O)(N[C@@H](C)C(=O)OC(C)C)O[C@H]2[C@@]1(C)F (single isomer, unassigned) [Compound 1 Diastereomer 1] | 250 to 1000 nM | 84% | 4700 pmol · hr/mill cells | 2296 pmol/mill cells | 92% | 70% | 83% | 87% | –
CCOc1nc(N)nc2c1ncn2[C@@H]1O[C@@H]2COP(=O)(N[C@@H](C)C(=O)OC(C)C)O[C@H]2[C@@]1(C)F (single isomer, unassigned) [Compound 1 Diastereomer 2] | – | 96% | 1451 pmol · hr/mill cells | 884 pmol/mill cells | 36% | 98% | 2% | 83% | < 250 nM
